Data on 18 compounds can be found in US11401295B2, “Cyclic dinucleotide compound and uses thereof” (SHANGHAI JEMINCARE PHARMACEUTICALS CO., LTD., priority 2018, dated 2022).

The term EC50 denotes the concentration at which the effect is half-maximal.

Like-named read-outs stand apart in the source and are kept apart here.

Experiment [1] relates to IRF3 pathway in RAW-Dual cells (RAW264.7). Nature of the experiment: Raw-Dual reporter gene activity assay (luciferase, QUANTI-Luc). The format is cell-based, mouse. How it is done: The RAW-Dual™ cells used in the test (InvivoGen catalog code: rawd-ismip) were constructed by stably integrating two inducible reporter genes in mouse macrophage cell line RAW264.7. The NF-KB pathway was studied by detecting SEAP activity and the IRF3 pathway was studied by evaluating the activity of luciferase. […] On the second day, the culture medium was discarded, and 200 μL of compound solution prepared in advance with the culture medium was added into each well followed by incubation at room temperature for 30 minutes. After the treatment medium was sucked out, it was washed twice with serum-free culture medium, and 200 μL of culture medium was added into each well, followed by incubation in an incubator at 37° C. for 18-24 hours. On the third day, 20 μL of supernatant was collected per well and QUANTI-Luc™ was used to quantify the activation of IRF3 pathway according to the manufacturer's instructions.
(In general: In a reporter assay the amount or activity of a reporter protein is the signal.)

Experiment [2] deals with IRF3 pathway in THP1-Dual cells. Description: THP1-Dual reporter gene activity assay (Lucia luciferase, QUANTI-Luc). The experiment is classed as cell-based, human. An excerpt: THP1-Dual™ cells (InvivoGen catalog code: thpd-nfis) used in the test were constructed by stably integrating two inducible reporter genes into the human monocyte cell line THP1. The promoter sequence composition of the secretory embryonic alkaline phosphatase (SEAP) reporter gene consists of an IFN-β primary promoter and five copies of the upstream NF-κB co-expression transcriptional response element and three copies of the c-Rel binding site. The secretory luciferase (Lucia) reporter gene is driven by five interferon (IFN)-stimulated response elements and a basic promoter of ISG54. This made it possible to study simultaneously the two major downstream signaling pathways of STING: the NF κB pathway by detecting SEAP activity: and the IRF pathway by evaluating the activity of Lucia luciferase.
The compounds were diluted with PB buffer (50 mM HEPES, 100 mM KCl, 3 mM MgCl2, 0.1 mM DTT, 85 mM Sucrose, 1 mM ATP, 0.1 mM GTP, 0.20% BSA). 20 μL of the reference or tested compound was added to each well in a 96-well plate, followed by 180 μL of THP1-Dual cells (approximately 100,000 cells/well) suspended in PB buffer. The plate was incubated for 30 minutes at 37° C. under […], and centrifuged at 1000 rpm for 10 minutes. The supernatant was discarded. […] The supernatants were collected and QUANTI-Luc™ was used to quantify the activation of the IRF3 pathway according to the manufacturer's instructions.

Setting [3] is: Mus musculus, RAW264.7, read-out: Raw, EC50.
Where [4] appears, read: THP1-Dual cells, IRF3 pathway (Lucia), 30 min treatment, 18 hours incubation, read-out: EC50.

Consider `BP1(=O)OC[C@H]2O[C@@H](n3cnc4c(N)ncnc43)[C@@H](F)C2OP(B)(=O)OC[C@H]2O[C@@H](n3cc(F)c4c(=O)[nH]cnc43)[C@@H](O)C2O1` (single isomer, unassigned) [Compound 3D], for which the EC50 came out at 10 µM in experiment [1] (read-out: Raw, EC50) and 26.1 µM in experiment [2].

On to `BP1(=O)OC[C@H]2O[C@@H](n3cnc4c(N)ncnc43)C(O)[C@H]2OP(=O)(S)OC[C@H]2O[C@@H](n3cnc4c(N)ncnc43)[C@@H](F)C2O1` (stereo partly drawn) [Compound 1A], for which, in experiment [2] (Homo sapiens, THP1-Dual), the concentration giving a half-maximal response (EC50) worked out at 74.7 µM.

Take `BP1(=O)OC[C@H]2O[C@@H](n3cc(F)c4c(=O)[nH]cnc43)[C@@H](F)C2OP(B)(=O)OC[C@H]2O[C@@H](n3cnc4c(N)ncnc43)[C@@H](F)C2O1` (single isomer, unassigned) [Compound 6D]: the EC50 is 9.5 µM in experiment [1] (read-out: Raw, EC50) and 12.3 µM in experiment [2].

Turning to `BP1(=O)OC[C@H]2O[C@@H](n3cnc4c(N)ncnc43)[C@@H](F)C2OP(B)(=O)OC[C@H]2O[C@@H](n3cc(F)c4c(=O)[nH]cnc43)[C@@H](O)C2O1` (single isomer, unassigned) [Compound 3C], the results for the EC50 in experiment [1] (setting [3]) and in experiment [2] were 9.4 µM and 47.2 µM, respectively.

`BP1(=O)OC[C@H]2O[C@@H](n3cnc4c(N)ncnc43)C(F)[C@H]2OP(B)(=O)OC[C@H]2O[C@@H](n3cnc4c(N)ncnc43)[C@@H](F)C2O1` (stereo partly drawn) [Compound 2A]: the EC50 was 23.4 µM in experiment [1] (setting [3]) and 1.75 µM in experiment [2] (Homo sapiens, THP1-Dual).

Consider `BP1(=O)OC[C@H]2O[C@@H](n3cnc4c(N)ncnc43)C(O)[C@H]2OP(=O)(S)OC[C@H]2O[C@@H](n3cnc4c(N)ncnc43)C(F)[C@H]2O1` (stereo partly drawn) [Compound 1B], for which the half-maximal effective concentration (EC50) in experiment [1] (setting [3]) is 15.8 µM; in experiment [2] (Homo sapiens, THP1-Dual) it was 7.38 µM.

Consider `Nc1nc2c(ncn2[C@@H]2O[C@@H]3COP(=O)(O)O[C@H]4[C@@H](O)[C@H](n5cnc6c(N)ncnc65)O[C@@H]4COP(=O)(O)O[C@@H]2[C@@H]3O)c(=O)[nH]1` [2′,3′-cGAMP, (2′ 3′) cyclic guanosine monophosphate-adenosine monophosphate, reference compound], for which the EC50 in experiment [2] (setting [4]) worked out at 20.2 µM.

Take `BP1(=O)OC[C@H]2O[C@@H](n3cc(F)c4c(=O)[nH]cnc43)[C@@H](F)C2OP(B)(=O)OC[C@H]2O[C@@H](n3cnc4c(N)ncnc43)[C@@H](F)C2O1` (single isomer, unassigned) [Compound 6B]: the EC50 was 5.4 µM in experiment [1] (read-out: Raw, EC50) and 9.31 µM in experiment [2].

Turning to `BP1(=O)OC[C@@]23COC([C@H](n4cnc5c(N)ncnc54)O2)[C@H]3OP(B)(=O)OC[C@H]2O[C@@H](n3cnc4c(N)ncnc43)[C@@H](F)C2O1` (single isomer, unassigned) [Compound 5D], the figures for the EC50 in experiment [1] (setting [3]) and in experiment [2] were 31.6 µM and 12.6 µM, respectively.

In the case of `BP1(=O)OC[C@H]2O[C@@H](n3cc(F)c4c(=O)[nH]cnc43)[C@@H](F)C2OP(B)(=O)OC[C@H]2O[C@@H](n3cnc4c(N)ncnc43)[C@@H](F)C2O1` (single isomer, unassigned) [Compound 6C], the EC50 in experiment [1] (read-out: Raw, EC50) was determined as 1.1 µM; in experiment [2], 2.31 µM.

In the case of `BP1(=O)OC[C@@]23COC([C@H](n4cnc5c(N)ncnc54)O2)[C@H]3OP(B)(=O)OC[C@H]2O[C@@H](n3cnc4c(N)ncnc43)[C@@H](F)C2O1` (single isomer, unassigned) [Compound 5B], the EC50 in experiment [1] (setting [3]) turned out to be 54.8 µM; in experiment [2] (Homo sapiens, THP1-Dual), 11.4 µM.

For `Nc1ncnc2c1ncn2[C@@H]1O[C@@H]2COP(=O)(S)O[C@@H]3[C@H](O)[C@@H](COP(O)(=S)O[C@H]2[C@H]1O)O[C@H]3n1cnc2c(N)ncnc21` (stereo partly drawn) [ADU-S100, reference compound], the EC50 in experiment [1] (RAW-Dual cells, IRF3 pathway, 30 min treatment, 18-24 hours incubation, read-out: Raw, EC50) was determined as 47.1 µM; in experiment [2] (setting [4]), 23.4 µM.

In turn, `BP1(=O)OC[C@H]2O[C@@H](n3cc(F)c4c(=O)[nH]cnc43)[C@@H](F)C2OP(B)(=O)OC[C@H]2O[C@@H](n3cnc4c(N)ncnc43)[C@@H](F)C2O1` (single isomer, unassigned) [Compound 6A] registered an EC50 in experiment [2] of 1.36 µM.

In the case of `BP1(=O)OC[C@H]2O[C@@H](n3cnc4c(N)ncnc43)C(O)[C@H]2OP(=O)(S)OC[C@H]2O[C@@H](n3cnc4c(N)ncnc43)C(F)[C@H]2O1` (single isomer, unassigned) [Compound 1C], the EC50 was determined as 41.4 µM in experiment [1] (setting [3]) and 16.8 µM in experiment [2].

In experiment [2], `BP1(=O)OC[C@@]23COC([C@H](n4cnc5c(N)ncnc54)O2)[C@H]3OP(B)(=O)OC[C@H]2O[C@@H](n3cnc4c(N)ncnc43)[C@@H](F)C2O1` (single isomer, unassigned) [Compound 5A] had an EC50 of 6.2 µM.

As to `BP1(=O)OC[C@H]2O[C@@H](n3cnc4c(N)ncnc43)C(O)[C@H]2OP(=O)(S)OC[C@H]2O[C@@H](n3cnc4c(N)ncnc43)C(F)[C@H]2O1` (single isomer, unassigned) [Compound 1D], the EC50 in experiment [1] (read-out: Raw, EC50) stood at 24.4 µM; in experiment [2], 7.48 µM.

For the compound `BP1(=O)OC[C@@]23COC([C@H](n4cnc5c(N)ncnc54)O2)[C@H]3OP(B)(=O)OC[C@H]2O[C@@H](n3cnc4c(N)ncnc43)[C@@H](F)C2O1` (single isomer, unassigned) [Compound 5C], the EC50 in experiment [1] (read-out: Raw, EC50) worked out at 28.2 µM.

As for `BP1(=O)OC[C@H]2O[C@@H](n3cnc4c(N)ncnc43)[C@@H](F)C2OP(B)(=O)OC[C@H]2O[C@@H](n3cc(F)c4c(=O)[nH]cnc43)[C@@H](O)C2O1` (single isomer, unassigned) [Compound 3B], a half-maximal response in experiment [2] (Homo sapiens, THP1-Dual) (EC50) required 42.2 µM.
